Experimental data published in PubChem BioAssay (NCI).
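Tested at 5 concentrations; 48 h exposure; 96-well plates; endpoints linearly interpolated, else capped at highest concentration. At the TGI there is no net growth.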

Assays:
Assay in all cases: NCI tumour cell line growth inhibition, 48 h
[1] = tested on: COLO 205 colon
[2] = tested on: MCF7 breast
[3] = tested on: HCT-15 colon
[4] = tested on: 786-0 renal
[5] = tested on: ACHN renal
[6] = tested on: MDA-N
[7] = tested on: NCI-H460 lung
[8] = tested on: SF-539 CNS
[9] = tested on: NCI-H522 lung
[10] = tested on: NCI-H226 lung
[11] = tested on: HCT-116 colon
[12] = tested on: IGROV1 ovarian
[13] = tested on: OVCAR-3 ovarian
[14] = tested on: DU-145 prostate
[15] = tested on: NCI-H23 lung
[16] = tested on: HT29 colon
[17] = tested on: LOX IMVI melanoma
[18] = tested on: A549 NSCLC
[19] = tested on: SNB-19 CNS
[20] = tested on: K-562 leukemia

Compound | TGI [1] [µM] | TGI [2] [µM] | TGI [3] [µM] | TGI [4] [µM] | TGI [5] [µM] | TGI [6] [µM] | TGI [7] [µM] | TGI [8] [µM] | TGI [9] [µM] | TGI [10] [µM] | TGI [11] [µM] | TGI [12] [µM] | TGI [13] [µM] | TGI [14] [µM] | TGI [15] [µM] | TGI [16] [µM] | TGI [17] [µM] | TGI [18] [µM] | TGI [19] [µM] | TGI [20] [µM]
CC(=O)N1C(c2[nH]c3ccccc3c2-c2ccccc2)CCN1c1ccccc1 (stereo not given) | > 10 | > 10 | > 10 | > 10 | > 10 | > 10 | > 10 | > 10 | > 10 | > 10 | > 10 | > 10 | > 10 | > 10 | > 10 | > 10 | > 10 | > 10 | > 10 | > 10
CC[C@H]1C=CCC[C@@]2(C[C@@H]3CC[C@@H]4[C@H](C(=O)OCCCCCCCCCCCCCCCC(=O)O)[C@]5(CCC[C@@H](C)O5)NC(=[N+]34)N2)O1 | 1.34 | 4.95 | 7.77 | 0.418 | 1.89 | 7.68 | 1.12 | 3.12 | 0.365 | 3.69 | 2.16 | 8.93 | 5.83 | 8 | 4.83 | 5.61 | 0.284 | 5.87 | 9.46 | 5.73
CC(=O)NC(CS/N=N/c1nc[nH]c1C(N)=O)C(=O)O (stereo not given) | > 100 | > 100 | > 100 | > 100 | > 100 | > 100 | > 100 | > 100 | > 100 | > 100 | > 100 | > 100 | > 100 | > 100 | > 100 | > 100 | > 100 | > 100 | > 100 | > 100
COC(=O)C1=CC2CCCC1(O)C(C(C)=O)C2 (stereo not given) | > 100 | > 100 | > 100 | 41.3 | > 100 | > 100 | > 100 | 26.6 | 31.7 | > 100 | > 100 | 32.9 | > 100 | > 100 | > 100 | > 100 | 34.3 | > 100 | > 100 | > 100
CCOC(CN=C=S)OCC | > 10 | > 10 | > 10 | > 10 | > 10 | > 10 | > 10 | > 10 | > 10 | > 10 | > 10 | > 10 | > 10 | > 10 | > 10 | > 10 | > 10 | > 10 | > 10 | > 10
O=c1c2nn3c(=O)n(-c4ccccc4)c(=O)c3nn2c(=O)n1-c1ccccc1 | > 100 | > 100 | > 100 | > 100 | > 100 | > 100 | > 100 | > 100 | > 100 | > 100 | > 100 | > 100 | > 100 | > 100 | > 100 | > 100 | > 100 | > 100 | > 100 | > 100
CC1CNc2ccccc2N=C1NN (stereo not given) | > 100 | > 100 | > 100 | > 100 | > 100 | > 100 | > 100 | > 100 | > 100 | > 100 | > 100 | > 100 | > 100 | > 100 | > 100 | > 100 | > 100 | > 100 | > 100 | > 100
O=C(C1OC1c1ccc(O)cc1)C12CC3CC(CC(C3)C1)C2 (stereo not given) | > 76.9 | > 100 | > 100 | 48.2 | > 94.5 | > 75 | > 100 | > 94.9 | 24.7 | > 100 | > 69.8 | > 100 | > 64.8 | > 100 | > 100 | > 100 | > 56.1 | > 100 | > 100 | > 61.3
O=CC(=C(I)I)c1ccccc1 | 6.79 | 16.2 | 5.01 | 5.78 | 8.8 | 4.81 | 40.9 | 5.17 | 4.06 | 32 | 2.78 | 11.2 | 3.69 | 19.5 | 4.97 | > 32.5 | 4.06 | 41.8 | 21.1 | 1.34
S=c1sc2c(s1)SCCCCSCCCCSc1sc(=S)sc1SCCCCSCCCCS2 | > 100 | > 100 | > 100 | > 100 | > 100 | > 100 | > 100 | > 100 | > 100 | > 100 | > 100 | > 100 | > 100 | > 100 | > 100 | > 100 | > 100 | > 100 | > 100 | > 100
O=Nc1c(O)cc(Nc2ccc(Br)cc2)c2ccccc12 | 26.6 | 17.8 | 15 | 27.3 | 25.1 | 3.41 | 11 | > 100 | > 100 | 10.5 | > 59.2 | > 100 | > 51.9 | 3.33 | 3.47 | 28.1 | > 31.2 | 6.04 | 11.8 | > 75
CC(NNC(=O)c1ccncc1)c1ccc(F)cc1 (stereo not given) | > 100 | > 100 | > 100 | > 100 | > 100 | > 100 | > 100 | > 100 | > 100 | > 100 | > 100 | > 100 | > 100 | > 100 | > 100 | > 100 | > 100 | > 100 | > 100 | > 100
CC(=O)OCOC(=O)CN(CC(=O)OCOC(C)=O)Cc1cc2c(cc1OC(C)=O)Oc1cc(OC(C)=O)c(CN(CC(=O)OCOC(C)=O)CC(=O)OCOC(C)=O)cc1C21OC(=O)c2ccccc21 | 1.86 | 7.73 | 7.05 | 1.41 | 4.02 | 1.32 | 1.45 | 1.05 | 1.17 | 2.86 | 1.5 | 1.36 | 2.98 | 6.35 | 2.51 | 1.88 | 1.29 | 4.82 | 6.16 | 0.401
COc1cc(C=C2C(C)=NN(c3cccc(Cl)c3)C23SCC(=O)N3c2nc3ccccc3s2)ccc1O (stereo not given) | 32.9 | > 100 | > 93.6 | > 91.5 | 77.5 | > 100 | > 100 | > 58.4 | 41.5 | > 80.7 | 65.3 | > 100 | > 80.1 | > 100 | 84.2 | > 100 | > 69 | > 100 | > 100 | 37.2
CCOC(=O)N/N=C(/OCC)c1ccccc1 | > 100 | > 100 | > 100 | > 100 | > 100 | > 100 | > 100 | > 100 | > 100 | > 100 | > 100 | > 100 | > 100 | > 100 | > 100 | > 100 | > 100 | > 100 | > 100 | > 100
CC(=O)N1C(Nc2ccccn2)CCN1c1ccccc1 (stereo not given) | > 10 | > 10 | > 10 | > 10 | > 10 | > 10 | > 10 | > 10 | > 10 | > 10 | > 10 | > 10 | > 10 | > 10 | > 10 | > 10 | > 10 | > 10 | > 10 | > 10
CC(=O)CCCCC(=O)Nc1ccc(CC(NC(=O)OC(C)(C)C)C(=O)NCC(=O)OCc2ccccc2)cc1 (stereo not given) | 34.7 | 49.5 | > 100 | 49 | > 100 | 38.6 | 43 | 34.1 | 57.9 | 94 | 37.8 | > 100 | 27.9 | 88.5 | 76.6 | 36.7 | 29.3 | > 100 | 55 | 47.6
N=c1oc2cc(O)ccc2cc1C(=O)NCc1ccccc1 | 25.4 | > 100 | > 100 | > 100 | > 100 | 49.7 | > 100 | 63.3 | 39.1 | > 100 | 71.3 | > 100 | 57.9 | 56.4 | 58.7 | > 100 | > 100 | > 100 | 96.9 | 28.2
